# Laboratory results: patent US5292751A, “5,7-dihydroxy-2-methyl-8-(4-(3-hydroxy-1-(1-propyl))pip eridinyl)-4H-1-benzopyran-4-one, its preparation and its use” (priority 1991, dated 1994)
# Where two headings read alike, the source gives them in different places.
# Assays:
# [1] = format: in vivo; conditions: for Therapeutic index (LD50 ED50): LD50 over carrageenin ED50
# Procedure: 1. Acute inflammation model:
# Systemic anti-inflammatory action on carrageenin-induced paw oedema in rats.
# Male Charles Foster rats (120-150 g) were fasted for 18 hours, with water ad libitum. The test compound suspended in Tween^R 80 and 0.5% C.M.C. was administered orally. The control group received Tween 80 and 0.5% C.M.C. 0.05 ml of 0.5% carrageenin suspension was injected subcutaneously into the plantar region of the left hind paw. Using a Maclab differential volume meter, the paw volume was determined before the carrageenin injection and 3 and 6 hours after the injection. The percentage decrease in paw volume was calculated by the following equation: [formula] The ED50 value was calculated from the dose/response curve. Six animals were used for each group.
# in vivo [2] = conditions: po, rat
# in vivo [3] = format: in vivo; conditions: for potentiation of the secondary arthritic response: p.o. per day
# Procedure: 2. Adjuvant induced arthritis (developing) in Rats
# Female Charles Foster rats weighing 150-180 g were sorted into groups (10 rats/group). Each animal received 10 μl of 1% suspension of mycobacterium tuberculli in paraffin oil, intradermally, at the base of the tail. Drug treatment was instituted on the day of the induction of arthritis and continued for 21 days. The body weight of each rat was noted prior to the adjuvant suspension injection and subsequently all throughout for 21 days. Volumes of both hind paws were recorded on the day of injection and subsequently from 7 days onwards till the end of the experiment.
# [4] = rat, p.o., carrageenin paw oedema, from dose/response curve
Structure (SMILES),"therapeutic index, comparison in words ([1]; compared with compounds B and C)","ED50, mg/kg p.o. [1, 4] [mg/kg]","Therapeutic index (LD50 ED50) ([1]; rat, p.o.)",LD50 (in vivo [2]) [mg/kg],"deaths or toxic side effects (in vivo [3]; 30 mg/kg, p.o./day, 21 days)","inhibition of adjuvant arthritis (in vivo [3]; 1.25, 2.5, 5 and 10 mg/kg/day, p.o., 21 days)","ED50, mg/kg p.o. ([1]; po) [mg/kg]",potentiation of the secondary arthritic response (in vivo [3]; 3 mg/kg) [%],potentiation of the secondary arthritic response (in vivo [3]; 9 mg/kg) [%],"symptoms of cytotoxicity (in vivo [3]; 18 mg/kg, p.o./day)","inhibition of adjuvant arthritis (in vivo [3]; 18 mg/kg, p.o./day, may be due to toxicity)","response in adjuvant arthritis (in vivo [3]; 3, 9, 18 and 27 mg/kg/day p.o., 21 days)","therapeutic range (in vivo [3]; p.o., daily dosing)","inhibition of adjuvant arthritis (in vivo [3]; 0.1, 1 and 10 mg/kg, p.o., 21 days)","mortality (in vivo [3]; rat, in vivo, po, 10 mg/kg/day, 10 mg/kg, p.o./day, between 9th and 11th day of administration) [%]"
"CCCN1CC[C@H](c2c(O)cc(O)c3c(=O)cc(C)oc23)[C@H](O)C1 (single isomer, unassigned) [Compound A]",favourable therapeutic index over compounds B and C,20.0,32.5,650,No deaths or toxic side effects were observed,dose-dependent and significant inhibition,–,–,–,–,–,–,–,–,–
Cc1cc(=O)c2c(O)cc(O)c(C3CCN(C)CC3O)c2o1 (stereo not drawn) [Compound B],–,–,–,–,–,–,9.0,58.6,64.9,weight loss and severe diarrhoea,significant inhibition,biphasic response,narrow therapeutic range,–,–
CN1CCC(c2c(O)cc(O)c3c(=O)cc(-c4ccccc4)oc23)C(O)C1 (stereo not drawn) [Compound C],–,1.3,20.76,27,–,–,–,–,–,–,–,–,–,No inhibition of adjuvant arthritis was seen at any of the doses tested,50
